How the values were obtained:
ghrelin receptor = biological target: T1, ghrelin receptor (Rattus norvegicus, UniProt O08725); experiment: Antagonism of ghrelin on electric-field-stimulated contractions of isolated rat gastric fundus strips (headed 'In Vivo Test'); settings: ghrelin 0.1 nM-1 μM concentration-response curves with and without antagonist, contact time 30 minutes, read-out: antagonist activity towards the ghrelin receptor, IC50
T1 construct: Strips of approximately 1 cm (5 mm wide) of gastric fundus were cut out along the longitudinal axis; from tissue; host or cells: rat gastric fundus strips
T1 sequence (O08725 whole entry): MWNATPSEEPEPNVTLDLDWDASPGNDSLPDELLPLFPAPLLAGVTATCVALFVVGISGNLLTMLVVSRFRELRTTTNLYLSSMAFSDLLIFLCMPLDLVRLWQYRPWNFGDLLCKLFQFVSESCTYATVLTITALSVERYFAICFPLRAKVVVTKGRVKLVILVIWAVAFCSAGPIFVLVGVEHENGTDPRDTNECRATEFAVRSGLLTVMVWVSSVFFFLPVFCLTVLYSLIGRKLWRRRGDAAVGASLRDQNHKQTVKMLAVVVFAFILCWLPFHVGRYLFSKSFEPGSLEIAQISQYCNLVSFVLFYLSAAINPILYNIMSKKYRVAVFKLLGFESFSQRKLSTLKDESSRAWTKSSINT
Procedure: The compounds according to the invention underwent in vivo studies.
Male Crl CD BR rats (Charles River, Italy) weighing 150-175 g were housed in a chamber at regulated temperature (22±1° C.) and humidity (55±10%) and with a 12-hour lightness-darkness cycle, for at least 7 days before their use. Feed and water were available ad libitum. The feed was removed 18 hours before sacrificing the animals. The rats were sacrificed by cervical dislocation, and the stomach was removed surgically, opened along the shorter curvature and placed in a Krebs solution (of composition (mM): 118.4 NaCl; 4.7 KCl; 2.5 CaCl2; 3.7 NaH2PO4; 1.2 MgSO4; 25 NaHCO3; 5.6 glucose). The animals were cared for and sacrificed according to the Sanofi-Aventis international code of ethics and the international principles governing the care and treatment of laboratory animals (EEC Directive 86/609, DJL358, 1, 12 Dec. 1987). […] The contractions were recorded by computer with a data recording and analysis system (Power Lab, Chart 5) connected to isotonic transducers (Ugo Basile, Varese, Italy) via preamplifiers (Octal Bridge Amp). […] The pKb values for the antagonists were calculated according to the Cheng-Prusoff equation (Kenakin et al., Competitive Antagonism, Pharmacologic Analysis of Drug-Receptor Interaction, 3rd edition, 331-373, Philadelphia, New York; Raven: Lippincott, 1997).

Structure (SMILES)	IC50 (ghrelin receptor)	melting point
CN1CCN(CC(=O)NC2(c3ccc(Cl)cc3)C(=O)Nc3cc(Cl)c(Cl)cc32)CC1 (single isomer, unassigned; (+)) [Compound 1, (+)-N-[5,6-Dichloro-3-(4-chlorophenyl)-2-oxo-2,3-dihydro-1H-indol-3-yl]-2-(4-methylpiperazin-1-yl)acetamide]	50 nM	207.1 to 207.6 °C
CCN1CCC(CC(=O)NC2(c3ccc(C(F)(F)F)cc3)C(=O)Nc3cc(Cl)cc(Cl)c32)CC1 (single isomer, unassigned; (+)) [Compound 2, (+)-N-[4,6-Dichloro-3-(4-trifluoromethylphenyl)-2-oxo-2,3-dihydro-1H-indol-3-yl]-2-(1-ethylpiperid-4-yl)acetamide]	1 nM	158 to 162 °C

Reference: patent US8202871B2, “Indol-2-one derivatives disubstituted in the 3-position, preparation thereof and therapeutic use thereof” (Sanofi-Aventis, priority 2007, dated 2012)
